From paper PMC3456924, “Single-dose pharmacokinetic and toxicity analysis of pyrrole–imidazole polyamides in mice” (Cancer Chemotherapy and Pharmacology, 2012)
“Also recorded” adds a separate entry of the source.

Key:
[1] = Urinary and fecal excretion after a single IV injection; assay type: in vivo, BALB/C mice
Method: Pyrrole–imidazole polyamide pharmacokinetic studies were performed in 10- to 12-week-old female BALB/C mice (Charles River). Polyamides were solubilized in PBS (1) or PBS/DMSO (2) and administered via intravenous (IV) tail vein injection at concentrations of 7.5 and 5 mg/kg, respectively. For each experiment, groups of 3 animals were euthanized at 0.083, 0.25, 0.5, 1, 2, 4, 8, and 24 h after injection. Animals designated for the 4, 8, and 24 h time points were housed in metabolic cages for collection of urine and feces as described below. All animals used in the pharmacokinetic experiments were performed under an approved protocol at the City of Hope.
Urine and fecal samples were collected using metabolic cages (Ancare, Techniplast Metabolic Rack, 12 cages by Nalgene). Urine samples were collected at 3 time points over 24 h, and fecal samples were collected at 8 and 24 h time points. […]
Plasma pharmacokinetic parameters were derived from polyamide concentration profiles using both non-compartmental and compartmental methods. […] Additional plasma pharmacokinetic parameters determined from the compartmental analysis include the alpha and beta half-lives (t 1/2) and the apparent volume of distribution (V d). […] Urinary and fecal excretion data were expressed as the cumulative percentage of the administered dose.

pH stability analysis = assay type: physicochemical; conditions: buffers at 37 °C for 24 h; analytical HPLC
Method: The pH stability of Py-Im polyamides was analyzed as previously described. In summary, 15 μL of a 10 μM solution of polyamide 1 or 2 in DMSO was incubated with 85 μL of buffer with pH of 2.5, 4, 7, or 10 (Fluka) at 37 °C for 24 h. After incubation, the sample was mixed with an equal volume of N,N-dimethylformamide and sonicated briefly. Next, 20 μL of the sample solution was mixed with 180 μL of aqueous buffer containing 100 mM NH4OAc and 25 μM methyl 4-nitro-1H-pyrrole-2-carboxylate as an internal standard. Analytical HPLC analysis was performed on a Beckman analytical HPLC.

[2] = system: androgen receptor (AR) signaling; PSA mRNA in LNCaP prostate cancer cells; conditions: cited from earlier work
[3] = system: 5′-WGWWCW-3′ sequence (androgen response element DNA); parameters: method as in PMID 18459783, PMID 22080545, PMID 17566103; conditions: cited from earlier work
Aqueous solubility = assay type: physicochemical; conditions: 2 requires a polar aprotic cosolvent like DMSO for administration
[4] = parameters: method as in PMID 19413319; conditions: previous ADMET study; cited from earlier work

Compound | cumulative urinary excretion ([1]; nearly complete by 4 h, single IV 7.5 mg/kg) | stability at pH 2.5, 4, 7, and 10 (pH stability analysis) | most active concentration for inhibition of DHT-induced genes ([2]; LNCaP cells co-treated with DHT) [µg/mL] | cumulative urinary excretion at 24 h ([1]; 24 h, single IV 5 mg/kg) | activity relative to polyamide 1 (AR-driven gene / PSA mRNA downregulation) ([2]; cell culture) | DNA-binding ability relative to polyamide 1 [3] | solubility in aqueous solutions (Aqueous solubility) | liver microsomal degradation [4]
CN(CCCNC(=O)c1cccc(C(=O)O)c1)CCCNC(=O)c1cc(NC(=O)c2cc(NC(=O)c3cc(NC(=O)c4nc(NC(=O)[C@H](N)CCNC(=O)c5cc(NC(=O)c6cc(NC(=O)c7cc(NC(=O)c8nccn8C)cn7C)cn6C)cn5C)cn4C)cn3C)cn2C)cn1C [Polyamide 1] | 5.7 ± 2.9 % of the administered dose | did not display significant signs of degradation at any pH | 7.4 |  |  |  |  | 
CC(=O)N[C@@H](CNC(=O)c1cc(NC(=O)c2cc(NC(=O)c3cc(NC(=O)c4nccn4C)cn3C)cn2C)cn1C)CC(=O)Nc1cn(C)c(C(=O)Nc2cc(C(=O)Nc3cc(C(=O)Nc4cc(C(=O)NCCCN(C)CCCNC(=O)c5cccc(C(=O)O)c5)n(C)c4)n(C)c3)n(C)c2)n1 [Polyamide 2] |  | did not display significant signs of degradation at any pH |  | 46.0 ± 15.2 % of the administered dose | tenfold increase; also recorded: equivalent activity to 1 at tenfold less concentration | without significant changes to its DNA-binding ability | less soluble than 1; also recorded: relatively poor aqueous solubility | resistant to liver microsomal degradation
